Source: US9624206B2, “Antibacterial 1H-indazole and 1H-indole derivatives” (priority 2013, dated 2017)
Values after ≈ are worked out from the molar mass of the structure shown. Where two headings read alike, the source gives them in different places.

Key:
Format in all cases: cell-based
[1] = test system: E. coli ATCC25922; assay: Bacterial growth minimal inhibitory concentration (microdilution, CLSI M7-A7); details: quinolone-sensitive strain, cation-adjusted Mueller-Hinton Broth; for MIC: Escherichia coli, ATCC25922
Outline: (§1)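 Broth microdilution in cation-adjusted Mueller-Hinton broth per CLSI M7-A7, with MICs in mg/L. K. pneumoniae A-651 and A. baumannii T6474 are multiply resistant, including to quinolones. E. coli ATCC25922 and P. aeruginosa ATCC27853 are quinolone-sensitive.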

[2] = test system: K. pneumoniae A-651; assay: as above; details: multiply-resistant strain (in particular quinolone-resistant), cation-adjusted Mueller-Hinton Broth; for MIC: Klebsiella pneumoniae, A651
Outline: as §1

[3] = test system: P. aeruginosa ATCC27853; assay: as above; details: quinolone-sensitive strain, cation-adjusted Mueller-Hinton Broth; for MIC: Pseudomonas aeruginosa, ATCC27853
Outline: as §1

[4] = test system: Acinetobacter baumannii T6474; assay: as above; details: multiply-resistant strain (in particular quinolone-resistant), cation-adjusted Mueller-Hinton Broth; for MIC: Acinetobacter baumannii, T6474
Outline: as §1

[5] = test system: wild-type E. coli A-1261; assay: MIC against wild-type E. coli A-1261 with or without alkaline phosphatase or esterase; details: Escherichia coli
Procedure: Minimal Inhibitory Concentrations (MICs; mg/L) were determined in cation-adjusted Mueller-Hinton Broth by a microdilution method following the description given in “Methods for Dilution Antimicrobial Susceptibility Tests for Bacteria that Grow Aerobically”, Approved standard, 7th ed., Clinical and Laboratory Standards Institute (CLSI) Document M7-A7, Wayne, Pa., USA (2006). The compounds of Examples 48 and 49 were tested against wild-type E. coli A-1261 in the absence of alkaline phosphatase or esterase, in the presence of an alkaline phosphatase and in the presence of an esterase. The corresponding antibacterial test results are given in Table 2 hereafter (MICs in mg/L).

[6] = read-out: MIC for E. coli A-1261 In the absence of alkaline phosphatase or esterase
[7] = read-out: MIC for E. coli A-1261 In the presence of an alkaline phosphatase (2 i.U./mL)
[8] = read-out: MIC for E. coli A-1261 In the presence of an esterase (10 i.U./mL)

Molecule	MIC [1]	MIC [2]	MIC [3]	MIC [4]	MIC [5, 6]	MIC [5, 7]	MIC [5, 8]	MIC for E. coli ATCC25922 [1]	MIC for K. Pneumoniae A-651 [2]	MIC for P. aeruginosa ATCC27853 [3]	MIC for A. Baumannii T6474 [4]
C[C@@](CCn1ncc2cc(C#Cc3ccc(CCO)cc3)c(F)cc21)(C(=O)NO)S(C)(=O)=O [Example 47, (R)-4-(6-fluoro-5-((4-(2-hydroxyethyl)phenyl)ethynyl)-1H-indazol-1-yl)-N-hydroxy-2-methyl-2-(methylsulfonyl)butanamide]	≤ 0.063 µg/mL	0.25 µg/mL (≈ 0.528 µM)	2 µg/mL (≈ 4.22 µM)	0.25 µg/mL (≈ 0.528 µM)	–	–	–	–	–	–	–
C[C@@](CCn1ncc2cc(C#Cc3ccc(C4(COP(=O)(O)O)CC4)cc3)ccc21)(C(=O)NO)S(C)(=O)=O [Example 48, (R)-(1-(4-((1-(4-(hydroxyamino)-3-methyl-3-(methylsulfonyl)-4-oxobutyl)-1H-indazol-5-yl)ethynyl)phenyl)cyclopropyl)methyl dihydrogen phosphate]	–	–	–	–	16 µg/mL	1 µg/mL	16 µg/mL	–	–	–	–
CN(C)CC(=O)OCC1(c2ccc(C#Cc3ccc4c(cnn4CC[C@](C)(C(=O)NO)S(C)(=O)=O)c3)cc2)CC1.O=CO [Example 49, (R)-(1-(4-((1-(4-(hydroxyamino)-3-methyl-3-(methylsulfonyl)-4-oxobutyl)-1H-indazol-5-yl)ethynyl)phenyl)cyclopropyl)methyl dimethylglycinate formate]	1 µg/mL	2 µg/mL	16 µg/mL	2 µg/mL	1 µg/mL	1 µg/mL	0.125 µg/mL	–	–	–	–
C[C@@](CCn1ncc2cc(C#CC#CC[C@@H](O)CO)ccc21)(C(=O)NO)S(C)(=O)=O [Example 50, (R)-4-(5-((R)-6,7-dihydroxyhepta-1,3-diyn-1-yl)-1H-indazol-1-yl)-N-hydroxy-2-methyl-2-(methylsulfonyl)butanamide]	4 µg/mL (≈ 9.23 µM)	4 µg/mL (≈ 9.23 µM)	2 µg/mL (≈ 4.61 µM)	32 µg/mL (≈ 73.8 µM)	–	–	–	–	–	–	–
C[C@@](CCn1ncc2cc(C#CC#C[C@@H]3C[C@@H](O)[C@@H](O)C3)ccc21)(C(=O)NO)S(C)(=O)=O [Example 51, (R)-4-(5-(((1s,3R,4S)-3,4-dihydroxycyclopentyl)buta-1,3-diyn-1-yl)-1H-indazol-1-yl)-N-hydroxy-2-methyl-2-(methylsulfonyl)butanamide]	–	–	–	–	–	–	–	0.5 mg/L	1 mg/L	1 mg/L	4 mg/L
C[C@@](CCn1ncc2cc(C#Cc3ccc(C4(CO)CC4)cc3)ccc21)(C(=O)NO)S(C)(=O)=O [Example 52, (R)—N-hydroxy-4-(5-((4-(1-(hydroxymethyl)cyclopropyl)phenyl)ethynyl)-1H-indazol-1-yl)-2-methyl-2-(methylsulfonyl)butanamide]	≤ 0.063 µg/mL	0.25 µg/mL (≈ 0.519 µM)	2 µg/mL (≈ 4.15 µM)	0.125 µg/mL (≈ 0.26 µM)	–	–	–	–	–	–	–
C[C@@](CCn1ncc2cc(C#CC#CC34CC(CO)(C3)C4)ccc21)(C(=O)NO)S(C)(=O)=O [Example 53, (R)—N-hydroxy-4-(5-((3-(hydroxymethyl)bicyclo[1.1.1]pentan-1-yl)buta-1,3-diyn-1-yl)-1H-indazol-1-yl)-2-methyl-2-(methylsulfonyl)butanamide]	0.125 µg/mL (≈ 0.274 µM)	0.25 µg/mL (≈ 0.549 µM)	1 µg/mL (≈ 2.2 µM)	1 µg/mL (≈ 2.2 µM)	–	–	–	–	–	–	–
C[C@@](CCn1ncc2cc(C#CC#CC3(CN)CC3)ccc21)(C(=O)NO)S(C)(=O)=O [Example 54, (R)-4-(5-((1-(aminomethyl)cyclopropyl)buta-1,3-diyn-1-yl)-1H-indazol-1-yl)-N-hydroxy-2-methyl-2-(methylsulfonyl)butanamide]	8 µg/mL (≈ 18.7 µM)	16 µg/mL (≈ 37.3 µM)	8 µg/mL (≈ 18.7 µM)	> 32 µg/mL	–	–	–	–	–	–	–
(R)—N-hydroxy-4-(5-((3-hydroxythietan-3-yl)buta-1,3-diyn-1-yl)-1H-indol-1-yl)-2-methyl-2-(methylsulfonyl)butanamide [Example 32]	–	–	–	–	–	–	–	0.125 mg/L	0.25 mg/L	2 mg/L	16 mg/L
